“And” between values parts separate entries of the source, which are not always exact repeats. Identical values can stand only once. Inconclusive results and toxic doses are left out. How the source made its calls: active means survival T/C of 150% or more; inactive means T/C below 125% in these data.
Tested on: P388 leukemia ip, CD2F1 mice, survival T/C
Test: NCI In Vivo Anticancer Drug Screen. Data for tumor model P388 Leukemia (intraperitoneal) in CD2F1 (CDF1) mice
Settings: endpoint: median survival time, higher = longer survival
Procedure, shortened: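 Mice carrying the transplanted tumor received test compound or vehicle. Survival was recorded in each group, and the value is the treated-group measurement divided by that of the vehicle-treated control group.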

[1] = dose: 50.0 mg/kg/injection, schedule: Q01DX005 (ip), vehicle: saline with Tween-80
[2] = dose: 100.0 mg/kg/injection, schedule: Q01DX005 (ip), vehicle: saline with Tween-80
[3] = dose: 25.0 mg/kg/injection, schedule: Q01DX005 (ip), vehicle: Klucel (hydroxypropylcellulose) (HPC)
[4] = dose: 50.0 mg/kg/injection, schedule: Q01DX005 (ip), vehicle: Klucel (hydroxypropylcellulose) (HPC)
[5] = dose: 100.0 mg/kg/injection, schedule: Q01DX005 (ip), vehicle: Klucel (hydroxypropylcellulose) (HPC)
[6] = dose: 200.0 mg/kg/injection, schedule: Q01DX005 (ip), vehicle: Klucel (hydroxypropylcellulose) (HPC)
[7] = dose: 50.0 mg/kg/injection, schedule: Q01DX009 (ip), vehicle: saline with Tween-80
[8] = dose: 100.0 mg/kg/injection, schedule: Q01DX009 (ip), vehicle: saline with Tween-80
[9] = dose: 200.0 mg/kg/injection, schedule: Q01DX009 (ip), vehicle: saline with Tween-80
[10] = dose: 200.0 mg/kg/injection, schedule: Q01DX005 (ip), vehicle: saline with Tween-80
[11] = dose: 60.0 mg/kg/injection, schedule: Q01DX005 (ip), vehicle: saline with Tween-80
[12] = dose: 120.0 mg/kg/injection, schedule: Q01DX005 (ip), vehicle: saline with Tween-80
[13] = dose: 240.0 mg/kg/injection, schedule: Q01DX005 (ip), vehicle: saline with Tween-80
[14] = dose: 60.0 mg/kg/injection, schedule: Q01DX005 (ip), vehicle: saline
[15] = dose: 120.0 mg/kg/injection, schedule: Q01DX005 (ip), vehicle: saline
[16] = dose: 240.0 mg/kg/injection, schedule: Q01DX005 (ip), vehicle: saline

Measured: T/C

C=CCc1c(O)c(OC)cc2c1C(=O)CCCC2
inactive: dose: 100.0 mg/kg/injection, schedule: Q01DX009 (ip), vehicle: Klucel (hydroxypropylcellulose) (HPC) 100 % of control | dose: 200.0 mg/kg/injection, schedule: Q01DX009 (ip), vehicle: Klucel (hydroxypropylcellulose) (HPC) 94 % of control | dose: 400.0 mg/kg/injection, schedule: Q01DX009 (ip), vehicle: Klucel (hydroxypropylcellulose) (HPC) 94 % of control

COc1ccc2cc(-c3ccccc3)[s+]cc2c1
inactive: dose: 3.12 mg/kg/injection, schedule: Q01DX009 (ip), vehicle: DMSO 91 % of control | dose: 6.25 mg/kg/injection, schedule: Q01DX009 (ip), vehicle: DMSO 86 % of control | dose: 12.5 mg/kg/injection, schedule: Q01DX009 (ip), vehicle: DMSO 89 % of control | dose: 50.0 mg/kg/injection, schedule: Q01DX009 (ip), vehicle: DMSO 99 % of control

Cc1ccnc(NCc2ccccn2)c1
inactive: [1] 105 % of control | [2] 102 % of control

CCCC(=O)O.CCCC(=O)O.CCCC(=O)O.CCCC(=O)O.O=P1(N(CCCl)CCCl)NCCCO1.O=P1(N(CCCl)CCCl)NCCCO1.[Rh].[Rh] (stereo not drawn)
inactive: dose: 0.13 mg/kg/injection, schedule: Q01DX009 (ip), vehicle: olive oil, sesame oil, peanut oil 103 % of control | dose: 0.25 mg/kg/injection, schedule: Q01DX009 (ip), vehicle: olive oil, sesame oil, peanut oil 112 % of control | dose: 0.5 mg/kg/injection, schedule: Q01DX009 (ip), vehicle: olive oil, sesame oil, peanut oil 101 % of control | dose: 1.0 mg/kg/injection, schedule: Q01DX009 (ip), vehicle: olive oil, sesame oil, peanut oil 117 % of control

Nc1cnc(CO)nc1C(=O)O
inactive: dose: 50.0 mg/kg/injection, schedule: Q01DX005 (ip), vehicle: saline 100 % of control | dose: 100.0 mg/kg/injection, schedule: Q01DX005 (ip), vehicle: saline 102 % of control | dose: 200.0 mg/kg/injection, schedule: Q01DX005 (ip), vehicle: saline 107 % of control

CNC(=O)OCc1nc(SC)n(-c2ccccc2)c1COC(=O)NC
inactive: dose: 12.5 mg/kg/injection, schedule: Q01DX005 (ip), vehicle: distilled water + Tween-80 99 % of control | dose: 25.0 mg/kg/injection, schedule: Q01DX005 (ip), vehicle: distilled water + Tween-80 101 % of control | dose: 50.0 mg/kg/injection, schedule: Q01DX005 (ip), vehicle: distilled water + Tween-80 99 % of control and 102 % of control and 92 % of control | dose: 100.0 mg/kg/injection, schedule: Q01DX005 (ip), vehicle: distilled water + Tween-80 101 % of control and 106 % of control and 108 % of control | dose: 200.0 mg/kg/injection, schedule: Q01DX005 (ip), vehicle: distilled water + Tween-80 113 % of control | dose: 400.0 mg/kg/injection, schedule: Q01DX005 (ip), vehicle: distilled water + Tween-80 99 % of control

COc1cccc(C2OC3=C(Nc4ccccc4N3)C2=O)c1 (stereo not drawn)
inactive: [3] 98 % of control | [4] 100 % of control | dose: 60.0 mg/kg/injection, schedule: Q01DX005 (ip), vehicle: Klucel (hydroxypropylcellulose) (HPC) 97 % of control | [5] 94 % of control | dose: 120.0 mg/kg/injection, schedule: Q01DX005 (ip), vehicle: Klucel (hydroxypropylcellulose) (HPC) 95 % of control | [6] 94 % of control | dose: 240.0 mg/kg/injection, schedule: Q01DX005 (ip), vehicle: Klucel (hydroxypropylcellulose) (HPC) 94 % of control | dose: 400.0 mg/kg/injection, schedule: Q01DX005 (ip), vehicle: Klucel (hydroxypropylcellulose) (HPC) 98 % of control

O=S1(c2ccccc2)=NC(=S)Nc2ccccc21 (stereo not drawn)
inactive: [7] 111 % of control | [8] 102 % of control | [9] 98 % of control

Nc1cnnc2nc[nH]c12
inactive: dose: 12.5 mg/kg/injection, schedule: Q01DX005 (ip), vehicle: Klucel (hydroxypropylcellulose) (HPC) 100 % of control | [3] 101 % of control | [4] 100 % of control and 111 % of control | [5] 117 % of control

O=C1C=C(NCc2nc3ccccc3[nH]2)C(c2ccccc2)N1c1ccccc1 (stereo not drawn)
inactive: [4] 100 % of control | [5] 96 % of control | [6] 93 % of control

C/C(=N\NC(=S)N1CCCCCC1)c1cccc(C)n1
inactive: dose: 12.5 mg/kg/injection, schedule: Q01DX005 (ip), vehicle: saline with Tween-80 110 % of control | dose: 25.0 mg/kg/injection, schedule: Q01DX005 (ip), vehicle: saline with Tween-80 109 % of control | [1] 120 % of control

Nc1cccc(-c2nn[nH]n2)c1
inactive: [1] 98 % of control | [2] 102 % of control | [10] 88 % of control

Cn1cnc([N+](=O)[O-])c1S(N)(=O)=O
inactive: [8] 88 % of control | [9] 123 % of control

COC(=O)C1CC(C(=O)OC)C2C(C(=O)OC)CC(C(=O)OC)C12 (stereo not drawn)
inactive: [11] 99 % of control | [12] 96 % of control | [13] 99 % of control

C1CCCCCc2c(-c3noc4c3CCCCCCCCCC4)noc2CCCC1
inactive: dose: 60.0 mg/kg/injection, schedule: Q01DX005 (ip), vehicle: Klucel + Tween-80 105 % of control | dose: 120.0 mg/kg/injection, schedule: Q01DX005 (ip), vehicle: Klucel + Tween-80 97 % of control | dose: 240.0 mg/kg/injection, schedule: Q01DX005 (ip), vehicle: Klucel + Tween-80 100 % of control

CS(=O)(=O)C(c1nc2nnc(N)n2[nH]c1=O)c1nc2nnc(N)n2[nH]c1=O
inactive: [14] 99 % of control | [15] 105 % of control | [16] 105 % of control

CN(C)c1ccc(/C=N/NC(=O)c2ccccc2N)cc1
inactive: [11] 103 % of control | [12] 100 % of control | [13] 98 % of control

CCOC(=O)NCC(C)(c1ccccc1)c1ccccc1
inactive: dose: 50.0 mg/kg/injection, schedule: Q01DX009 (ip), vehicle: saline 87 % of control | dose: 100.0 mg/kg/injection, schedule: Q01DX009 (ip), vehicle: saline 94 % of control | dose: 200.0 mg/kg/injection, schedule: Q01DX009 (ip), vehicle: saline 87 % of control

C=CCn1c(=O)c2[nH]c(Cl)nc2n(CC)c1=O
inactive: dose: 16.0 mg/kg/injection, schedule: Q01DX009 (ip), vehicle: Klucel (hydroxypropylcellulose) (HPC) 100 % of control and 105 % of control | dose: 32.0 mg/kg/injection, schedule: Q01DX009 (ip), vehicle: Klucel (hydroxypropylcellulose) (HPC) 106 % of control and 94 % of control | dose: 64.0 mg/kg/injection, schedule: Q01DX009 (ip), vehicle: Klucel (hydroxypropylcellulose) (HPC) 102 % of control and 106 % of control

CS(=O)(=O)CC(=N\O)/C(CS(C)(=O)=O)=N/O
inactive: [14] 103 % of control | [15] 94 % of control | [16] 103 % of control

Cc1nc2ccc(CCN3CCN(c4ccccc4Cl)CC3)cc2[nH]1
inactive: dose: 50.0 mg/kg/injection, schedule: Q01DX001 (ip), vehicle: Klucel (hydroxypropylcellulose) (HPC) 100 % of control | dose: 100.0 mg/kg/injection, schedule: Q01DX001 (ip), vehicle: Klucel (hydroxypropylcellulose) (HPC) 108 % of control and 120 % of control | dose: 200.0 mg/kg/injection, schedule: Q01DX001 (ip), vehicle: Klucel (hydroxypropylcellulose) (HPC) 116 % of control and 93 % of control

CN(O)C1=c2ccccc2=NC1=O
inactive: [7] 91 % of control | [8] 92 % of control | [9] 114 % of control

CCN(Cc1cccc(S(=O)(=O)O)c1)c1ccc(C(=C2C=CC(=[N+](CC)Cc3cccc(S(=O)(=O)O)c3)C=C2)c2ccccc2Cl)cc1
inactive: [1] 103 % of control | [2] 99 % of control | [10] 110 % of control

O=C(C1=Cc2ccccc2OC1)N1CCN(c2ccccc2Cl)CC1
inactive: dose: 100.0 mg/kg/injection, schedule: Q04DX003 (ip), vehicle: Klucel (hydroxypropylcellulose) (HPC) 106 % of control | dose: 200.0 mg/kg/injection, schedule: Q04DX003 (ip), vehicle: Klucel (hydroxypropylcellulose) (HPC) 101 % of control | dose: 400.0 mg/kg/injection, schedule: Q04DX003 (ip), vehicle: Klucel (hydroxypropylcellulose) (HPC) 88 % of control

COC(=O)C1CCc2c(cnn2-c2ccccn2)C1 (stereo not drawn)
inactive: [7] 97 % of control | [8] 101 % of control | [9] 100 % of control

O=S(=O)([O][Hg][CH2]C1Cc2ccccc2O1)[O][Hg][CH2]C1Cc2ccccc2O1 (stereo not drawn)
inactive: dose: 11.0 mg/kg/injection, schedule: Q01DX009 (ip), vehicle: saline with Tween-80 118 % of control

COC(=O)C12C3C4C1C1C2C3C41C(=O)OC (stereo not drawn)
inactive: [11] 102 % of control | [12] 102 % of control | [13] 102 % of control
